pIC50: −log10 of the molar value.
Assays:
[1] = biological target: T1, Serine/threonine-protein kinase DCLK1 (Homo sapiens) (UniProt O15075); experiment: Selectivity interaction (Kinase panel (Z-LYTE Assay)) EUB0001632a DCLK1; details: at 10 µM
T1 sequence (whole entry): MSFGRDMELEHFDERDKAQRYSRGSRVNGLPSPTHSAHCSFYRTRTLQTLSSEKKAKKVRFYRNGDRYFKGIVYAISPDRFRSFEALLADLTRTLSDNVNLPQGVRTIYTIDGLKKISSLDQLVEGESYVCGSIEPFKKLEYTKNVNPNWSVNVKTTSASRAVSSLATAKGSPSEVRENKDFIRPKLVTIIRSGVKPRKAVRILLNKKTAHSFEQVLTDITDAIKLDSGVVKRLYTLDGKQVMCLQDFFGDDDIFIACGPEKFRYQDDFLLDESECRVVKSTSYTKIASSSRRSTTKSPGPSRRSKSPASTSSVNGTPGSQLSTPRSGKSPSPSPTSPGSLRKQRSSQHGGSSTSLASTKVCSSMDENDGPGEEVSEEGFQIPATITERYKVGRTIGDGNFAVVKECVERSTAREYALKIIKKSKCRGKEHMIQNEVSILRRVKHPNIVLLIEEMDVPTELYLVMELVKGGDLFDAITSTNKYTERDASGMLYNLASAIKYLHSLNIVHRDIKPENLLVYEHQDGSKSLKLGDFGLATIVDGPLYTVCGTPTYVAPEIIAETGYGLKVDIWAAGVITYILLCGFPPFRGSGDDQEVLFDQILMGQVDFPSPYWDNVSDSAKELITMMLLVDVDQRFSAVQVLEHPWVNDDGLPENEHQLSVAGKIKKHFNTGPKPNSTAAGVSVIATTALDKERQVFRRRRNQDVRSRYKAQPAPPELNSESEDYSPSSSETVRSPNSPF

[2] = biological target: Glutamate receptor ionotropic, kainate 1 (Homo sapiens) (UniProt P39086); experiment: Selectivity interaction (Eurofins CEREP Diversity Profile (receptors and ion channels)) EUB0000279b GRIK1; details: at 10 µM
[3] = biological target: Serine/threonine-protein kinase N1 (Homo sapiens, UniProt Q16512); experiment: Selectivity interaction (ActivX KiNativ screen (kinase selectivity in THP-1 cell lysates)) EUB0000639a PKN1; assay type: subcellular; details: lysate, at 0.2 µM
Serine/threonine-protein kinase N1, sequence (Q16512 2-942 limits assumed): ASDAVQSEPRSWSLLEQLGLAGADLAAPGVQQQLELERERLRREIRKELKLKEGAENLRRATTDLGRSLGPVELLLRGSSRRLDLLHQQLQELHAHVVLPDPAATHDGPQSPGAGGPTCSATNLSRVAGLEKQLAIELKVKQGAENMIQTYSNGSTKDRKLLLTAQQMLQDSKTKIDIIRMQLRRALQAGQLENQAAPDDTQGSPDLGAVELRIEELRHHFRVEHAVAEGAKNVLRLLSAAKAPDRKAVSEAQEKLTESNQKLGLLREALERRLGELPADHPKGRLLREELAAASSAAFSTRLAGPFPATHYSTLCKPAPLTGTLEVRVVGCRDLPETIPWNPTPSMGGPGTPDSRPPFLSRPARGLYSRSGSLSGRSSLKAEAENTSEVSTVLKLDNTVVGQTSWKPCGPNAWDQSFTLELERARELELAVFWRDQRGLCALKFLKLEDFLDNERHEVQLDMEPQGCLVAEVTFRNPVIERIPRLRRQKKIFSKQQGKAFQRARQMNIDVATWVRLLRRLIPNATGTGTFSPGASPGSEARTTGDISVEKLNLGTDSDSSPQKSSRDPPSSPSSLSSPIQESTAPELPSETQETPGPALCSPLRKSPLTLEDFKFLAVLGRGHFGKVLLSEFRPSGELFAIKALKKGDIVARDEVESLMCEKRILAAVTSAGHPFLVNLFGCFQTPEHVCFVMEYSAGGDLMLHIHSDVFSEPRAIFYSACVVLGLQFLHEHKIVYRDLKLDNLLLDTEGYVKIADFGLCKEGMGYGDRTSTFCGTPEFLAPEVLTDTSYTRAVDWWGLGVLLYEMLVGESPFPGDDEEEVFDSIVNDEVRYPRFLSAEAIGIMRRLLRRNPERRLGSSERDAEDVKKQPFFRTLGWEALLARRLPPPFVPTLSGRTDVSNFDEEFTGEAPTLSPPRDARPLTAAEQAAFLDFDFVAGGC

[4] = biological target: T2, Dual specificity mitogen-activated protein kinase kinase 3 (Homo sapiens) (UniProt P46734); experiment: Selectivity interaction (ActivX KiNativ screen (kinase selectivity in THP-1 cell lysates)) EUB0000639a MAP2K3; assay type: subcellular; details: lysate
T2 sequence (whole entry): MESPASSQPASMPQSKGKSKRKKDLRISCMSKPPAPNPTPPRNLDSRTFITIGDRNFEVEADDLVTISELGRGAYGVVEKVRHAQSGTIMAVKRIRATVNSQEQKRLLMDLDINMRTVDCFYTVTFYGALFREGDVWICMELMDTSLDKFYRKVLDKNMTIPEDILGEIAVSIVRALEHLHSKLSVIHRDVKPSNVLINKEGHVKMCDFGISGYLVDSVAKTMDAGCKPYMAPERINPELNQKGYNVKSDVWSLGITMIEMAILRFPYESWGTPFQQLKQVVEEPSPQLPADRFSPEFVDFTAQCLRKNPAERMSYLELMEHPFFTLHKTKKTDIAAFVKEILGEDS

[5] = biological target: Ribosomal protein S6 kinase alpha-3 (Homo sapiens, UniProt P51812); experiment: Selectivity interaction (ActivX KiNativ screen (kinase selectivity in THP-1 cell lysates)) EUB0000639a RPS6KA3; assay type: subcellular; details: lysate, at 0.2 µM
Ribosomal protein S6 kinase alpha-3, sequence (P51812 whole entry): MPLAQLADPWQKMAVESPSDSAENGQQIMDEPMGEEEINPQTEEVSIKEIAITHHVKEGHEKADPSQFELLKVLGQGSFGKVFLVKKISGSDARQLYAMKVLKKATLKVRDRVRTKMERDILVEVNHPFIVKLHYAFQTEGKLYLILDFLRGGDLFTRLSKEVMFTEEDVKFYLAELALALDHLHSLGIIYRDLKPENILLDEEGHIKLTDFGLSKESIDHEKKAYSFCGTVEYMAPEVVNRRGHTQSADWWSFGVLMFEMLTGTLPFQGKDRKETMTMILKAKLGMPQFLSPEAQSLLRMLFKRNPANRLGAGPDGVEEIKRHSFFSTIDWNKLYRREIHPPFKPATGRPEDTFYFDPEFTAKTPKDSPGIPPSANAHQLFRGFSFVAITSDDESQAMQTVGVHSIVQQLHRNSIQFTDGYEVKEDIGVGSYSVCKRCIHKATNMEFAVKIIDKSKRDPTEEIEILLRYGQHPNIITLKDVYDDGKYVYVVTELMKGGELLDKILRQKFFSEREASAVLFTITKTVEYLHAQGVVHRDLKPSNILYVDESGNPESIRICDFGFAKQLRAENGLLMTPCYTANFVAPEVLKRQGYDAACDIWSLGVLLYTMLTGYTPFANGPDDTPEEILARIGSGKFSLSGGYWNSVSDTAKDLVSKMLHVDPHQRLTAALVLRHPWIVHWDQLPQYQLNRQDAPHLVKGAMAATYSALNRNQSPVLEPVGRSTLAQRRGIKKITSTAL

[6] = biological target: SRSF protein kinase 3 (Homo sapiens) (UniProt Q9UPE1); experiment: Selectivity interaction (KinomeScan (DiscoverX)) EUB0000695a SRPK3; details: at 100 nM
SRSF protein kinase 3 (Homo sapiens), sequence (Q9UPE1 whole entry): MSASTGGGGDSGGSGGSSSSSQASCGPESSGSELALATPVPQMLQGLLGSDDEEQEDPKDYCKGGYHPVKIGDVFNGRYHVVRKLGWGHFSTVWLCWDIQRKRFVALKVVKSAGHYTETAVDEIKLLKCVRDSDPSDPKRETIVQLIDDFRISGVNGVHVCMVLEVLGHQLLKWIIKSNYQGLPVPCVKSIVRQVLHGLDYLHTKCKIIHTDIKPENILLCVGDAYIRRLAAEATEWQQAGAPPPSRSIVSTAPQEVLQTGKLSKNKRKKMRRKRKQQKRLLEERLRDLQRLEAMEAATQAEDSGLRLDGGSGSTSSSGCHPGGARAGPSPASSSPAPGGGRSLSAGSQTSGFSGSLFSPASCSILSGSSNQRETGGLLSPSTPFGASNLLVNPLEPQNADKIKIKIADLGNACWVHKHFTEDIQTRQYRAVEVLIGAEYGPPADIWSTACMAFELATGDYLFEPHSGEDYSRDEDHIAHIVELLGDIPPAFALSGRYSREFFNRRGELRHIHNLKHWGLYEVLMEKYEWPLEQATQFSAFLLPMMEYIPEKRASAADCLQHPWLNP

[7] = biological target: High affinity nerve growth factor receptor (Homo sapiens, UniProt P04629); experiment: Selectivity interaction (KinaseProfiler screening (Millipore)) EUB0000601a NTRK1; details: at 3 µM
High affinity nerve growth factor receptor, sequence (P04629 33-796 limits assumed): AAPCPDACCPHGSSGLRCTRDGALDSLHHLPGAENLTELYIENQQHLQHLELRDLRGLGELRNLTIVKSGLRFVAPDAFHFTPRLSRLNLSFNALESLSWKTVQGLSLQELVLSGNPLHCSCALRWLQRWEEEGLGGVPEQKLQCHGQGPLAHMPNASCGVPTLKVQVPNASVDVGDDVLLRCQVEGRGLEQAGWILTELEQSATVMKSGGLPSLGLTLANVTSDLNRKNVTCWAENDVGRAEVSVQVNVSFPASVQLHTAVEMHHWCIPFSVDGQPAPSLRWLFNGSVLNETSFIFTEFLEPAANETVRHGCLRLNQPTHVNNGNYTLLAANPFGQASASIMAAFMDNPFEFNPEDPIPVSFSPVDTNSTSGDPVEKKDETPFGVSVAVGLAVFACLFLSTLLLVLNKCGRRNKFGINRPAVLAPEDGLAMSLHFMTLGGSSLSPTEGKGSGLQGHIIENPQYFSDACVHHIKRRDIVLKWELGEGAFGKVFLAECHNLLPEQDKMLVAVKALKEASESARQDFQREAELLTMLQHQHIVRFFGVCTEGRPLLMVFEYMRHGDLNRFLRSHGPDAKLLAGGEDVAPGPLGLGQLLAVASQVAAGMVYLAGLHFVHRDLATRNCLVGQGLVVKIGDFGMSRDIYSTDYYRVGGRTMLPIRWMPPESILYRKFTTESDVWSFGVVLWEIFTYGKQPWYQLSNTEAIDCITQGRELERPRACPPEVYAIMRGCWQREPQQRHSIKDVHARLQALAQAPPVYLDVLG

[8] = biological target: Mitogen-activated protein kinase 8 (Homo sapiens, UniProt P45983); experiment: Selectivity interaction (Enyzmatic assay) EUB0000601a MAPK8
Mitogen-activated protein kinase 8, sequence (P45983 whole entry): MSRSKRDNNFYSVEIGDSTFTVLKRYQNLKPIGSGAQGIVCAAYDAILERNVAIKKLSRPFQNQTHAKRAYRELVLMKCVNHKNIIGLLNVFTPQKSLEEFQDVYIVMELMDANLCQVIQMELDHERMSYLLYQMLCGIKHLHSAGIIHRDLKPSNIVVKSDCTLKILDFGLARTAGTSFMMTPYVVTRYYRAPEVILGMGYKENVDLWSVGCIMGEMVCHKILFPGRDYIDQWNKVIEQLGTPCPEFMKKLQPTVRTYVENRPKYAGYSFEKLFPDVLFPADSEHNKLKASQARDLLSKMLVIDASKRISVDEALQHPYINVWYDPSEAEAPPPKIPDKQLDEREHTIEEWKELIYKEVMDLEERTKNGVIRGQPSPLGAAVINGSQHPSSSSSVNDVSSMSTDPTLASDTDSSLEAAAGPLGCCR

[9] = biological target: 5'-AMP-activated protein kinase catalytic subunit alpha-2 (Homo sapiens) (UniProt P54646); experiment: Selectivity interaction (Ambit KINOMEscan and KiNATiv profiling in Jurkat cells) EUB0000090b PRKAA2; assay type: cell-based; details: at 1 µM
5'-AMP-activated protein kinase catalytic subunit alpha-2 (Homo sapiens), sequence (P54646 whole entry, looked up): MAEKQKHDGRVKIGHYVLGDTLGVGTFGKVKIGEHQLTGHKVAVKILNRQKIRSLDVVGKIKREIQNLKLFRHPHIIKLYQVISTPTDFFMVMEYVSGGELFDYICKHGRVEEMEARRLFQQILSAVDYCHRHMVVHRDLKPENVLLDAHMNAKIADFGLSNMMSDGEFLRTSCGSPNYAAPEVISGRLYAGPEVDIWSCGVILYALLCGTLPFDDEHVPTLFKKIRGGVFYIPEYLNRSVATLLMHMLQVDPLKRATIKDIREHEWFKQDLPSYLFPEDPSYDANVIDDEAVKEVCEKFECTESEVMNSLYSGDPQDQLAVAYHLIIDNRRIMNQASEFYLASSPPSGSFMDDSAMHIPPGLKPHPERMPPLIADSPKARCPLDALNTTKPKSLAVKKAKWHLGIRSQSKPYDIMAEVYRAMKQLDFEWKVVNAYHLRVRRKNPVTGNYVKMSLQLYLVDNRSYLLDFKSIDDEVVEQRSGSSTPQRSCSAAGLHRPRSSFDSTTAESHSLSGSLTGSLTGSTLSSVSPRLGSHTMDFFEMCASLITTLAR

[10] = biological target: Calcium/calmodulin-dependent protein kinase kinase 2 (Homo sapiens) (UniProt Q96RR4); experiment: Selectivity interaction (Kinase panel (DSF assay)) EUB0001558a CAMKK2
Calcium/calmodulin-dependent protein kinase kinase 2 (Homo sapiens), sequence (Q96RR4 2-588 limits assumed): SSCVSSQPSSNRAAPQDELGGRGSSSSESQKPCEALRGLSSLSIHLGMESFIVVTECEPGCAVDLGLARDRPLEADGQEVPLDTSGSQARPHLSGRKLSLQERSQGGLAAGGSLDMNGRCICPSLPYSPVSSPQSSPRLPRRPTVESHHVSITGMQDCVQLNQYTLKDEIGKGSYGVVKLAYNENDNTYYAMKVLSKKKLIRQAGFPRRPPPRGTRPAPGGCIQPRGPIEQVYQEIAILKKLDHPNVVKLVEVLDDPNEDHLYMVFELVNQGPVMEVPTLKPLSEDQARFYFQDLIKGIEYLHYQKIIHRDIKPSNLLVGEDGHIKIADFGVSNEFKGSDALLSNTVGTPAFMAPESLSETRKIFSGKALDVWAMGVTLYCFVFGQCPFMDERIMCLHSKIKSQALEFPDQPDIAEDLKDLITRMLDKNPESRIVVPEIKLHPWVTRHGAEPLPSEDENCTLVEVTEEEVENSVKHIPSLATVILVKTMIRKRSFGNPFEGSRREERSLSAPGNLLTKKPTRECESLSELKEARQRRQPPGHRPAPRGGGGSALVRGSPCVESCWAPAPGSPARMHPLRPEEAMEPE

[11] = biological target: T3, Serine/threonine-protein kinase Nek3 (Homo sapiens) (UniProt P51956); experiment: Selectivity interaction (KinomeScan (DiscoverX)) EUB0000655a NEK3; details: at 10 µM
T3 sequence (whole entry): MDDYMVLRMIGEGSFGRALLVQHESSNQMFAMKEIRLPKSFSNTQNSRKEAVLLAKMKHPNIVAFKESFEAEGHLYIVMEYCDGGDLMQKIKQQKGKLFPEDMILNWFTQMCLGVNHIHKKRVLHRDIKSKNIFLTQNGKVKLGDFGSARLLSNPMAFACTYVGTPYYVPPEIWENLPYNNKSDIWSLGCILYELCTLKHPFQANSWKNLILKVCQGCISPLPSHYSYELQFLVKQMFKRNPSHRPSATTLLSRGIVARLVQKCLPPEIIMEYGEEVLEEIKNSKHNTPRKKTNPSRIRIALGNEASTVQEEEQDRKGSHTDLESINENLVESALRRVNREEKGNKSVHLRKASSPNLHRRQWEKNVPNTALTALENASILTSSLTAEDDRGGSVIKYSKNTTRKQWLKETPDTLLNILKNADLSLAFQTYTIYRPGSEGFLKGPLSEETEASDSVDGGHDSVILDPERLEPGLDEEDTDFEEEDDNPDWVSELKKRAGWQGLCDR

Cn1cc(-n2cnc3c(NCc4nc5cc(Cl)c(Cl)cc5[nH]4)nc(N4CCOCC4)nc32)cn1 gave a % of control [1] of -1.19%.
With CC(=O)c1cc(-c2ccccc2OCC2CC2)c2ncccn12 the % of control [2] was 117%.
CC[C@@H]1[C@H](F)C(=O)N[C@@H]1COc1nccc2cc(C(N)=O)c(OC)cc12 [ZIMLOVISERTIB] showed a % of inhibition [3] of 5.5%, a % of inhibition ([4]; at 0.01 µM) of 15.1% and a % of inhibition ([4]; at 0.04 µM) of -11.7%. For the same molecule, the % of inhibition ([4]; at 0.2 µM) was -29.6%, the % of inhibition ([4]; at 1 µM) was -46.2% and the % of inhibition ([4]; at 5 µM) was -40.1%. The % of inhibition [5] was 0%.
For Cc1cc(F)c(C(=O)Nc2cccc(-c3nncn3C(C)C)n2)cc1-n1cnc(C2CC2)c1, the % of control [6] was 100%.
CCc1cc(Nc2nccc(-c3c(-c4ccc(OC)c(C(=O)Nc5c(F)cccc5F)c4)nc4ccccn34)n2)c(OC)cc1N1CCC(N2CCN(S(C)(=O)=O)CC2)CC1 was tested, and the % of inhibition [7] was 59% and the pIC50 [8] was under 5.00.
Molecule CN(C)C/C=C/C(=O)Nc1ccc(C(=O)N2CCCC(Nc3ncc(Cl)c(-c4c[nH]c5ccccc45)n3)C2)cc1 (stereo not given) has a % of control [9] of 98%.
For CC(C)(O)[C@H](F)CN1Cc2cc(NC(=O)c3cnn4cccnc34)c(N3CCOCC3)cc2C1=O, the dTM [10] was 4.3 K.
Molecule CN(C)CCOc1ccc(-c2nc(-c3ccncc3)c(-c3ccc4c(c3)CC/C4=N\O)[nH]2)cc1 has a % of control [11] of 71%.
